Measurements from patent publication US11414431B2, “Substituted pyrazolo[1,5-a]pyrimidines as TYK2 inhibitors” (Nimbus Lakshmi, Inc., priority 2018, dated 2022).

Experiments:
[1] = tested on: IL-12 induced STAT4 phosphorlyation mediated by TYK2/JAK2; test: IL-12 Induced pSTAT4 in Human PBMC; type: cell-based; conditions: 1.7 ng/mL IL-12 for 30 minutes
Method in brief: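 Thawed human PBMC pre-incubated with compound 1 hr at 37° C (0.1% DMSO final), then stimulated 30 minutes with IL-12 at 1.7 ng/mL final. pSTAT4 and total STAT4 measured in cell lysates with MSD reagents.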

[2] = biological target: human TYK2 (JH2domain-pseudokinase) (Homo sapiens (Human), UniProt P29597); test: TYK2 JH2 Domain Binding Assay (KINOMEscan); conditions: 11-point 3-fold dilution, top concentration 30,000 nM, duplicate; read-out: hTYK2_JH2_Binding (Kd; nM)
human TYK2 (JH2domain-pseudokinase), sequence (P29597 556-888): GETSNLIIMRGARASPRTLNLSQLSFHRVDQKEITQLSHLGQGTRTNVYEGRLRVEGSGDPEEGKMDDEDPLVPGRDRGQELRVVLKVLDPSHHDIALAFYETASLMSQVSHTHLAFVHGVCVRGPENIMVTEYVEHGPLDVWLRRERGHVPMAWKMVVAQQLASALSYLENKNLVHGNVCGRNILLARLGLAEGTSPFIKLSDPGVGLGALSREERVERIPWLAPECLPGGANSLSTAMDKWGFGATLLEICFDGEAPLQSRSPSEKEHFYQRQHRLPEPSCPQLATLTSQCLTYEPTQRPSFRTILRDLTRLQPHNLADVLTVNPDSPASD
Method in brief: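 KINOMEscan competition binding: HEK293-expressed NFkB-fused TYK2 JH2 (G556–D888), DNA-tagged, against immobilized ligand beads, 1 h shaking at room temperature, 0.9% DMSO. Bound kinase quantified by qPCR.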

IC50 [1] [µM]	Kd [2] [nM]	IC50 ([1]; 0.5 h) [µM]	Compound
< 0.1	< 0.2		CNc1cc(Nc2cccn([C@H]3CC[C@H](OC)CC3)c2=O)nc2c(C(=O)N[C@@H]3C[C@H]3OC)cnn12 [Compound I-31, 5-((1-((1r,4R)-4-Methoxycyclohexyl)-2-oxo-1,2-dihydropyridin-3-yl)amino)-N-((1R,2R)-2-methoxycyclopropyl)-7-(methylamino)pyrazolo[1,5-a]pyrimidine-3-carboxamide]
0.1 to 0.5	< 0.2		CNc1cc(-c2cn([C@H]3[C@@H]4COC[C@@H]43)c3ncccc23)nc2c(C(=O)N[C@@H]3CC[C@H]3O)cnn12 [Compound I-960]
< 0.1	< 0.2		CNc1ccc(-c2cc(NC)n3ncc(C(=O)NC4CC[C@@H]4OC)c3n2)n2ccnc12 (stereo partly shown) [Compound I-488]
	< 0.2	< 0.1	CNc1cc(-c2cn([C@H]3CCCOC3)c3ncccc23)nc2c(C(=O)N[C@@H]3CC[C@@H]3O)cnn12 [Compound I-14, N-((1R,2S)-2-Hydroxycyclobutyl)-7-(methylamino)-5-(1-((S)-tetrahydro-2H-pyran-3-yl)-1H-pyrrolo[2,3-b]pyridin-3-yl)pyrazolo[1,5-a]pyrimidine-3-carboxamide]
< 0.1	< 0.2		CNc1ccc(-c2cc(NC)n3ncc(C(=O)N[C@@H]4CC[C@H]4OC)c3n2)n2ccnc12 [Compound I-490]
< 0.1	< 0.2		O=C(NC1CC[C@@H]1F)c1cnn2c3c(c(-c4cn([C@H]5C[C@H](O)C5)c5ncccc45)nc12)OCCN3 (stereo partly shown) [Compound I-756]
0.1 to 0.5	< 0.2		CNc1cc(-c2cn([C@H]3C[C@@H](O)C3)c3ncccc23)nc2c(C(=O)N[C@@H]3C[C@@H]3F)cnn12 [Compound I-500]
< 0.1	< 0.2		CNc1cc(Nc2cccn(C3COC3)c2=O)nc2c(C(=O)NC3CC[C@@H]3F)cnn12 (stereo partly shown) [Compound I-163]
< 0.1	< 0.2		CNc1cc(-c2cnc3n([C@H]4COC[C@@H]4O)cccc2-3)nc2c(C(=O)N[C@@H]3C[C@@H]3F)cnn12 [Compound I-820]
< 0.1	< 0.2		CNc1cc(Nc2cccn([C@H]3CC[C@H](OC)CC3)c2=O)nc2c(C(=O)N[C@H]3C[C@@H]3OC)cnn12 [Compound I-32, 5-((1-((1r,4S)-4-Methoxycyclohexyl)-2-oxo-1,2-dihydropyridin-3-yl)amino)-N-((1S,2S)-2-methoxycyclopropyl)-7-(methylamino)pyrazolo[1,5-a]pyrimidine-3-carboxamide]
< 0.1	< 0.2		CC(C)n1cc(-c2nc3c(C(=O)NC4CC[C@H]4O)cnn3c3c2OCCN3)c2cccnc21 (stereo partly shown) [Compound I-753]
< 0.1	< 0.2		CNc1cc(Nc2cccn(-c3ocnc3C)c2=O)nc2c(C(=O)NC3CCC3)cnn12 [Compound I-144]
	< 0.2	< 0.1	CNc1cc(Nc2cccn([C@H]3C[C@H](OC)C3)c2=O)nc2c(C(=O)NC3CC3)cnn12 [Compound I-4, N-Cyclopropyl-5-((1-((1r,3r)-3-methoxycyclobutyl)-2-oxo-1,2-dihydropyridin-3-yl)amino)-7-(methylamino)pyrazolo[1,5-a]pyrimidine-3-carboxamide]
	< 0.2	< 0.1	CNc1cc(Nc2cccn([C@@H]3CCC[C@](C)(O)C3)c2=O)nc2c(C(=O)NC3CC3)cnn12 [Compound I-3, N-cyclopropyl-5-((1-((1R,3S)-3-hydroxy-3-methylcyclohexyl)-2-oxo-1,2-dihydropyridin-3-yl)amino)-7-(methylamino)pyrazolo[1,5-a]pyrimidine-3-carboxamide]
< 0.1	< 0.2		CO[C@@H]1CCC1NC(=O)c1cnn2c3c(c(Nc4cccn([C@H]5[C@@H]6COC[C@@H]65)c4=O)nc12)OCCN3 (stereo partly shown) [Compound I-762]
0.1 to 0.5	< 0.2		CNc1cc(Nc2cccn(-c3ccccn3)c2=O)nc2c(C(N)=O)cnn12 [Compound I-119]
< 0.1	< 0.2		CNc1cc(Nc2cccn(C3COC3)c2=O)nc2c(C(=O)N[C@@H]3CC[C@@H]3F)cnn12 [Compound I-162]
< 0.1	< 0.2		CC(C)n1cccc(Nc2nc3c(C(=O)N[C@H]4CCC4(F)F)cnn3c3c2OCCN3)c1=O [Compound I-766]
> 1	< 0.2		CNc1cc(-c2cnc3n(CC(=O)N4CC5(COC5)C4)cccc2-3)nc2c(C(=O)N[C@H]3CC[C@@H]3OC)cnn12 [Compound I-1012]
< 0.1	< 0.2		CNc1cc(Nc2cccn(-c3ocnc3C)c2=O)nc2c(C(=O)N[C@H]3CC[C@@H]3F)cnn12 [Compound I-186]
< 0.1	< 0.2		CNc1cc(-c2cnc3n([C@H]4CCOC[C@@H]4O)cccc2-3)nc2c(C(=O)NC3CC3)cnn12 [Compound I-819]
0.5 to 1	< 0.2		CNc1cc(-c2cnc3n(CC(=O)N4CCOCC4)cccc2-3)nc2c(C(=O)NC3CC[C@@H]3OC)cnn12 (stereo partly shown) [Compound I-962]

IC50 [1] [µM]	Kd [2] [nM]	IC50 ([1]; 0.5 h) [µM]	Compound
< 0.1	< 0.2		CNc1ccc(-c2cc(NC)n3ncc(C(=O)N[C@@H]4C[C@@H]4F)c3n2)n2ccnc12 [Compound I-479]
< 0.1	< 0.2		CNc1cc(-c2cnc3n([C@@H]4CCOC[C@H]4O)cccc2-3)nc2c(C(=O)N[C@@H]3C[C@@H]3F)cnn12 [Compound I-824]
< 0.1	< 0.2		CNc1cc(Nc2cccn(-c3ocnc3C)c2=O)nc2c(C(=O)NC3CC[C@@H]3F)cnn12 (stereo partly shown) [Compound I-185]
< 0.1	< 0.2		CNc1cc(-c2cn([C@H]3C[C@@H](O)C3)c3ncccc23)nc2c(C(=O)NC3CC3)cnn12 [Compound I-495]
< 0.1	< 0.2		CNc1cc(Nc2cccn([C@H]3C[C@H](OC)C3)c2=O)nc2c(C(=O)NC3CCC3)cnn12 [Compound I-141]
< 0.1	< 0.2		CNc1cc(Nc2cccn([C@H]3[C@@H]4COC[C@@H]43)c2=O)nc2c(C(=O)NC3CCC3)cnn12 [Compound I-142]
< 0.1	< 0.2		CNc1cc(Nc2cccn(C(C)C)c2=O)nc2c(C(=O)N[C@@H]3CC[C@@]3(C)O)cnn12 [Compound I-341]
< 0.1	< 0.2		CNc1cc(-c2cnc3n(C4CCOCC4)cccc2-3)nc2c(C(=O)N[C@H]3CC[C@@H]3OC)cnn12 [Compound I-1014]
< 0.1	< 0.2		CNc1cc(-c2cn([C@H]3C[C@@H](COC)C3)c3ncccc23)nc2c(C(=O)N[C@H]3CC[C@@H]3OC)cnn12 [Compound I-933]
< 0.1	< 0.2		O=C(N[C@H]1CC[C@@H]1F)c1cnn2c3c(c(-c4cn([C@H]5C[C@H](O)C5)c5ncccc45)nc12)OCCN3 [Compound I-757]
	< 0.2	< 0.1	CNc1cc(-c2cnc3n(C4CCN(CCOC)CC4)cccc2-3)nc2c(C(=O)N[C@H]3CC[C@@H]3OC)cnn12 [Compound I-1020, N-((1S,2S)-2-methoxycyclobutyl)-5-(7-(1-(2-methoxyethyl)piperidin-4-yl)-7H-pyrrolo[2,3-b]pyridin-3-yl)-7-(methylamino)pyrazolo[1,5-a]pyrimidine-3-carboxamide]
< 0.1	< 0.2		CNc1cc(Nc2cccn(C3COC3)c2=O)nc2c(C(=O)NC3CC[C@H]3F)cnn12 (stereo partly shown) [Compound I-160]
< 0.1	< 0.2		O=C(NC1CC[C@@H]1F)c1cnn2c3c(c(-c4cn(C5COC5)c5ncccc45)nc12)OCCN3 (stereo partly shown) [Compound I-774]
	< 0.2	< 0.1	CNc1cc(-c2cnc3n([C@@H]4CCOC[C@H]4O)cccc2-3)nc2c(C(=O)NC3CC3)cnn12 [Compound I-818, N-Cyclopropyl-5-(7-((3S,4R)-3-hydroxytetrahydro-2H-pyran-4-yl)-7H-pyrrolo[2,3-b]pyridin-3-yl)-7-(methylamino)pyrazolo[1,5-a]pyrimidine-3-carboxamide]
< 0.1	< 0.2		CNc1cc(-c2cnc3n([C@@H]4COC[C@H]4O)cccc2-3)nc2c(C(=O)NC3CC3)cnn12 [Compound I-817]
< 0.1	< 0.2		CNc1cc(-c2cn(C3COC3)c3ncccc23)nc2c(C(=O)NC3CC[C@@H]3F)cnn12 (stereo partly shown) [Compound I-507]
0.1 to 0.5	< 0.2		CNc1cc(-c2cnc3n([C@@H]4COC[C@H]4O)cccc2-3)nc2c(C(=O)N[C@@H]3C[C@@H]3F)cnn12 [Compound I-821]
< 0.1	< 0.2		CNc1cc(-c2cnc3n([C@H]4CCOC[C@@H]4O)cccc2-3)nc2c(C(=O)N[C@@H]3C[C@@H]3F)cnn12 [Compound I-825]
< 0.1	< 0.2		O=C(NC1CCC1(F)F)c1cnn2c3c(c(Nc4cccn([C@H]5[C@@H]6COC[C@@H]65)c4=O)nc12)OCCN3 (stereo partly shown) [Compound I-768]
	< 0.2	< 0.1	CNc1cc(-c2cnc3n(C4CCOCC4)cccc2-3)nc2c(C(=O)NC3CC[C@@H]3OC)cnn12 (stereo in doubt) [Compound I-985, N-(2-methoxycyclobutyl)-7-(methylamino)-5-(7-(tetrahydro-2H-pyran-4-yl)-7H-pyrrolo[2,3-b]pyridin-3-yl)pyrazolo[1,5-a]pyrimidine-3-carboxamide]
	> 10		CNc1cc(Nc2cccn(C3CC(F)(F)C3)c2=O)nc2c(C(=O)N[C@H]3CCC[C@]3(C)O)cnn12 [Compound I-90, 5-((1-(3,3-Difluorocyclobutyl)-2-oxo-1,2-dihydropyridin-3-yl)amino)-N-((1S,2S)-2-hydroxy-2-methylcyclopentyl)-7-(methylamino)pyrazolo[1,5-a]pyrimidine-3-carboxamide]
